These results are taken from PubChem BioAssay AID330 (DTP/NCI, 2004).

SMILES strings stand for the structures. Values joined by “and” are separate entries in the source; they are usually repeats but may differ in a detail not shown here. Equal values may be shown once. Inconclusive results and toxic doses are left out. Peptide text beside a SMILES is read from it. * marks the point of attachment. Trt = c1ccc(C(c2ccccc2)(c2ccccc2)*)cc1; Benzhydryl = c1ccc(C(c2ccccc2)*)cc1; Cbz = O=C(OCc1ccccc1)*

The assay has as its system P388 leukemia ip, CD2F1 mice, survival T/C. Description: NCI In Vivo Anticancer Drug Screen. Data for tumor model P388 Leukemia (intraperitoneal) in CD2F1 (CDF1) mice. The conditions noted are these: endpoint: median survival time, higher = longer survival. A digest of the protocol: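 Mice carrying the transplanted tumor received test compound or vehicle. Survival was recorded in each group, and the value is the treated-group measurement divided by that of the vehicle-treated control group.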

The mark [1] stands for this setting: dose: 50.0 mg/kg/injection, schedule: Q01DX009 (ip), vehicle: Klucel (hydroxypropylcellulose) (HPC).
Setting [2] is: dose: 200.0 mg/kg/injection, schedule: Q01DX009 (ip), vehicle: Klucel (hydroxypropylcellulose) (HPC).
The mark [3] stands for this setting: dose: 50.0 mg/kg/injection, schedule: Q01DX005 (ip), vehicle: saline with Tween-80.
Where [4] appears, read: dose: 100.0 mg/kg/injection, schedule: Q01DX005 (ip), vehicle: saline with Tween-80.
Where [5] appears, read: dose: 200.0 mg/kg/injection, schedule: Q01DX005 (ip), vehicle: saline with Tween-80.
[6] abbreviates: dose: 60.0 mg/kg/injection, schedule: Q01DX005 (ip), vehicle: Klucel (hydroxypropylcellulose) (HPC).
Where [7] appears, read: dose: 120.0 mg/kg/injection, schedule: Q01DX005 (ip), vehicle: Klucel (hydroxypropylcellulose) (HPC).
The mark [8] stands for this setting: dose: 240.0 mg/kg/injection, schedule: Q01DX005 (ip), vehicle: Klucel (hydroxypropylcellulose) (HPC).
Setting [9] is: dose: 100.0 mg/kg/injection, schedule: Q01DX009 (ip), vehicle: Klucel (hydroxypropylcellulose) (HPC).
The mark [10] stands for this setting: dose: 100.0 mg/kg/injection, schedule: Q04DX002 (ip), vehicle: Klucel (hydroxypropylcellulose) (HPC).
Setting [11] is: dose: 200.0 mg/kg/injection, schedule: Q04DX002 (ip), vehicle: Klucel (hydroxypropylcellulose) (HPC).
Setting [12] is: dose: 400.0 mg/kg/injection, schedule: Q04DX002 (ip), vehicle: Klucel (hydroxypropylcellulose) (HPC).
The mark [13] stands for this setting: dose: 25.0 mg/kg/injection, schedule: Q01DX005 (ip), vehicle: Klucel (hydroxypropylcellulose) (HPC).
Where [14] appears, read: dose: 50.0 mg/kg/injection, schedule: Q01DX005 (ip), vehicle: Klucel (hydroxypropylcellulose) (HPC).
[15] abbreviates: dose: 100.0 mg/kg/injection, schedule: Q01DX005 (ip), vehicle: Klucel (hydroxypropylcellulose) (HPC).
The mark [16] stands for this setting: dose: 200.0 mg/kg/injection, schedule: Q01DX005 (ip), vehicle: Klucel (hydroxypropylcellulose) (HPC).
Setting [17] is: dose: 100.0 mg/kg/injection, schedule: Q01DX009 (ip), vehicle: saline with Tween-80.
Where [18] appears, read: dose: 200.0 mg/kg/injection, schedule: Q01DX009 (ip), vehicle: saline with Tween-80.

On to `CSc1nc2ccc(NC(C)=O)cc2s1`, for which the T/C (dose: 12.5 mg/kg/injection, schedule: Q01DX009 (ip), vehicle: Klucel (hydroxypropylcellulose) (HPC)) was 111 % of control; the T/C (dose: 25.0 mg/kg/injection, schedule: Q01DX009 (ip), vehicle: Klucel (hydroxypropylcellulose) (HPC)) is 107 % of control; the T/C under setting [1] was 102 % of control and 87 % of control; the T/C under setting [2] was 90 % of control.

As for `COc1cccc2c1[C@H]1CO[C@H]3C4C[C@H](C(=O)O)C([C@@H](C2)N13)N4C` (some centres not stated), the T/C is 112 % of control (dose: 0.31 mg/kg/injection, schedule: Q01DX005 (ip), vehicle: water); 113 % of control and 121 % of control (dose: 0.62 mg/kg/injection, schedule: Q01DX005 (ip), vehicle: water); 116 % of control (dose: 1.25 mg/kg/injection, schedule: Q01DX005 (ip), vehicle: water); 165 % of control and 195 % of control and 247 % of control (dose: 10.0 mg/kg/injection, schedule: Q01DX005 (ip), vehicle: water); 247 % of control (dose: 20.0 mg/kg/injection, schedule: Q01DX005 (ip), vehicle: water).

For the compound `CCOC(=O)c1n[nH]c(C)c1C/C(=N/O)c1ccccc1`, the T/C under setting [3] is 103 % of control, the T/C under setting [4] is 92 % of control and the T/C under setting [5] was 92 % of control.

As for `Cc1c2c(ccc3ccccc32)c[n+]2ccccc12`, the T/C was 105 % of control (dose: 6.25 mg/kg/injection, schedule: Q04DX003 (ip), vehicle: other); 109 % of control (dose: 6.25 mg/kg/injection, schedule: Q04DX003 (ip), vehicle: saline); 105 % of control (dose: 12.5 mg/kg/injection, schedule: Q04DX003 (ip), vehicle: other); 109 % of control (dose: 12.5 mg/kg/injection, schedule: Q04DX003 (ip), vehicle: saline).

Consider `CCN(CC)c1ccc(NC2=CC(=O)C(Nc3ccc(N(CC)CC)cc3)=CC2=O)cc1`, for which the T/C under setting [3] is 91 % of control, the T/C under setting [4] is 89 % of control and the T/C under setting [5] was 89 % of control.

As for `COc1cc2cc[n+]3c(C)c4ccc(OC)c(OC)c4cc3c2cc1OC` (tested in a mixture with another compound), the T/C by setting is: (dose: 20.0 mg/kg/injection, schedule: Q01DX009 (ip), vehicle: saline) 150 % of control; (dose: 40.0 mg/kg/injection, schedule: Q01DX009 (ip), vehicle: saline) 154 % of control and 166 % of control.

Take `CCCCCCC(O)Cc1cc(-c2ccccc2)nc(=O)[nH]1` (configuration not stated): the T/C runs as follows: (dose: 15.0 mg/kg/injection, schedule: Q01DX005 (ip), vehicle: saline with Tween-80) 97 % of control; (dose: 60.0 mg/kg/injection, schedule: Q01DX005 (ip), vehicle: saline with Tween-80) 87 % of control; (dose: 240.0 mg/kg/injection, schedule: Q01DX005 (ip), vehicle: saline with Tween-80) 95 % of control.

On to `CCC[CH2][Sn]([CH2]CCC)([S]CCS(=O)(=O)O)[S]CCS(=O)(=O)O`, for which the T/C is, setting by setting: under setting [6], 100 % of control; under setting [7], 101 % of control; under setting [8], 99 % of control.

Consider `Cc1ccc2c(c1)sc1nnc(C)n12`, for which the T/C by setting is: under setting [1], 114 % of control; under setting [9], 97 % of control.

For `CCC(C)C(=O)OC1C(=O)OC2CC3C(C)=CC(=O)C(O)C3(C)C3C4(O)OCC23C1C(C)C4O` (configuration not stated), under “dose: 2.0 mg/kg/injection, schedule: Q01DX009 (ip), vehicle: saline”, the T/C is 96 % of control.

On to `CCS(=O)c1ccccc1` (configuration not stated), for which the T/C under setting [10] was 100 % of control, the T/C under setting [11] was 100 % of control and the T/C under setting [12] is 102 % of control.

As for `O=C1C=CC(=O)c2c(O)ccc(O)c21`, the T/C is, setting by setting: (dose: 0.2 mg/kg/injection, schedule: Q01DX005 (ip), vehicle: saline with Tween-80) 102 % of control; (dose: 0.4 mg/kg/injection, schedule: Q01DX005 (ip), vehicle: saline with Tween-80) 97 % of control; (dose: 0.8 mg/kg/injection, schedule: Q01DX005 (ip), vehicle: saline with Tween-80) 98 % of control; (dose: 1.0 mg/kg/injection, schedule: Q04DX003 (ip), vehicle: saline with Tween-80) 100 % of control; (dose: 2.0 mg/kg/injection, schedule: Q04DX003 (ip), vehicle: saline with Tween-80) 104 % of control; (dose: 4.0 mg/kg/injection, schedule: Q04DX003 (ip), vehicle: saline with Tween-80) 100 % of control.

Regarding `COC(=O)C(Cc1ccccc1)NC(=O)C(Cc1ccccc1)NC(=O)CNC(=O)C(CSC(c1ccccc1)c1ccccc1)NC(=O)C(CSC(c1ccccc1)(c1ccccc1)c1ccccc1)NC(=O)OCc1ccccc1` (configuration not stated) (Cbz-C(Trt)C(Benzhydryl)GFF-OMe; configuration not given here), the T/C by setting is: under setting [10], 88 % of control; under setting [11], 98 % of control; under setting [12], 98 % of control.

On to `O=C(Nc1ccc(N=C(Nc2ccccc2)c2ccccc2)cc1)c1ccc(C(=O)Nc2ccc(N=C(Nc3ccccc3)c3ccccc3)cc2)cc1`, for which the T/C was 98 % of control under setting [13], 91 % of control under setting [14], 91 % of control under setting [15] and 86 % of control under setting [16].

In the case of `O=[N+]([O-])c1ccc(N2N=NC(CN3CCOCC3)C2N2CCOCC2)cc1` (configuration not stated), the T/C under setting [6] is 111 % of control, the T/C under setting [7] was 117 % of control and the T/C under setting [8] is 118 % of control.

For `C[n+]1cccc(SC2CCC3CC4CC3C2C4)c1` (configuration not stated), the T/C (dose: 12.5 mg/kg/injection, schedule: Q01DX009 (ip), vehicle: saline with Tween-80) is 113 % of control and the T/C (dose: 25.0 mg/kg/injection, schedule: Q01DX009 (ip), vehicle: saline with Tween-80) is 102 % of control.

Take `OC(C(Br)CBr)C(O)C(Br)CBr` (configuration not stated): the T/C is 105 % of control under setting [1], 110 % of control under setting [9] and 112 % of control under setting [2].

Regarding `CCCCC(C)C(=O)/C=C/c1ccc(Cl)c(Cl)c1` (configuration not stated), the T/C by setting is: (dose: 50.0 mg/kg/injection, schedule: Q01DX009 (ip), vehicle: saline with Tween-80) 105 % of control; under setting [17], 100 % of control; under setting [18], 106 % of control.

`N=c1c(C(N)=O)cnc2n1CCCCC2`: the T/C (dose: 25.0 mg/kg/injection, schedule: Q04DX003 (ip), vehicle: saline) was 100 % of control; the T/C (dose: 50.0 mg/kg/injection, schedule: Q04DX003 (ip), vehicle: saline) was 100 % of control; the T/C (dose: 100.0 mg/kg/injection, schedule: Q04DX003 (ip), vehicle: saline) was 98 % of control.

Regarding `CCN(CC)CCCC(C)n1c2nc(=O)[nH]c(=O)c-2nc2cc(Cl)ccc21` (configuration not stated), the T/C reads like this: (dose: 12.5 mg/kg/injection, schedule: Q01DX005 (ip), vehicle: saline) 98 % of control; (dose: 25.0 mg/kg/injection, schedule: Q01DX005 (ip), vehicle: saline) 104 % of control; (dose: 50.0 mg/kg/injection, schedule: Q01DX005 (ip), vehicle: saline) 117 % of control and 119 % of control.

With `CCCOc1ccc(C(C)c2cc3c(cc2OC)OCO3)cc1` (configuration not stated), the T/C reads like this: under setting [13], 100 % of control; under setting [14], 103 % of control; under setting [15], 103 % of control; under setting [16], 98 % of control.

For `CCOC(=O)CC(=O)N(CC)CC`, the T/C is 104 % of control under setting [17]; 100 % of control under setting [18]; 95 % of control (dose: 400.0 mg/kg/injection, schedule: Q01DX009 (ip), vehicle: saline with Tween-80).

In the case of `COC(=O)C1=C(C(=O)OC)C2C=CC1C(=O)N2/C=C/c1ccccc1` (configuration not stated), the T/C (dose: 100.0 mg/kg/injection, schedule: Q04DX003 (ip), vehicle: saline with Tween-80) is 102 % of control and the T/C (dose: 400.0 mg/kg/injection, schedule: Q04DX003 (ip), vehicle: saline with Tween-80) is 117 % of control.
